The values that follow come from paper PMC6379637, “Consecutive influenza surveillance of neuraminidase mutations and neuraminidase inhibitor resistance in Japan” (Influenza and Other Respiratory Viruses, 2019).

The target of one test is A/H3N2 neuraminidase. In kind it is biochemical, influenza A/H3N2 virus.
In test [1] the test system is A/H1N1pdm09 neuraminidase. In kind it is biochemical, influenza A/H1N1pdm09 virus.
Test [2] concerns influenza B neuraminidase. In kind it is biochemical, influenza B virus.
Setting [3] is: read-out: IC50 (nM), second column without sub-head (median IC50 value).

Each structure is given as a SMILES string. Values joined by “and” are separate entries in the source; they are usually repeats but may differ in a detail not shown here. Equal entries are not always repeated. Where two headings read alike, the source gives them in different places.

As for `CCOC(=O)C1=C[C@@H](OC(CC)CC)[C@H](NC(C)=O)[C@@H](N)C1` [Oseltamivir, oseltamivir phosphate], on A/H3N2 neuraminidase (read-out: median IC50 values), the IC50 turned out to be 1.1 nM.
`CCC(CC)[C@H](NC(C)=O)[C@@H]1[C@H](O)[C@@H](C(=O)O)C[C@H]1N=C(N)N` [Peramivir, peramivir hydrate]: the “reduced susceptibility class (RI/HRI, WHO criteria)” value in test [1] was “RI (key: For A viruses, reduced inhibition (RI) was defined as a 10‐fold to 100‐fold increase in IC50 values; highly reduced inhibition (HRI) was defined as more than 100‐fold increase in IC50 values)”. The half-inhibitory concentration (IC50) in test [1] (read-out: median IC50 values) was 0.3 nM and 0.5 nM and 0.4 nM; in test [2] (read-out: median IC50 values) it was 2.5 nM and 2.1 nM; on A/H3N2 neuraminidase (read-out: IC50 (nM), median IC50 value (unheaded second column)), 1 nM; on A/H3N2 neuraminidase (setting [3]) it was 0.8 nM; on A/H3N2 neuraminidase (read-out: IC50 (nM), second unheaded column: median IC50 value), 0.7 nM; at A/H3N2 neuraminidase (read-out: median IC50 value) it was 0.7 nM. For the same compound, the IC50 at A/H3N2 neuraminidase (read-out: median IC50 value (unheaded second column under IC50 (nM))) came to 0.7 nM. Further, the “Fold change (IC50 / median IC50)” value in test [2] is 0.9 and 0.762 and 1.0 and 0.857 and 0.667 and 1.2 and 1.1 and 0.952. For the same compound, in test [2], the “Fold change (ratio of IC50 to the median IC50 value)” value was 0.8 and 1.1 and 0.7 and 0.76 and 1.0 and 1.3 and 1.2 and 0.9.
As for `CC(=O)N[C@H]1[C@H]([C@H](O)[C@H](O)CO)OC(C(=O)O)=C[C@@H]1N=C(N)N` [Zanamivir, zanamivir hydrate], the IC50 at A/H3N2 neuraminidase (setting [3]) amounted to 2.2 nM; on A/H3N2 neuraminidase (read-out: median IC50 value) it was 1.6 nM; at A/H3N2 neuraminidase (read-out: median IC50 values) it was 2.4 nM.

Broadly, the IC50 is the concentration that gives 50% inhibition.
